Results from patent publication US10421971B2, “Anti-tumor therapy” (The University of Chicago, priority 2014, dated 2019).

Columns and labels:
[1] = tested on: IFNβ promoter; assay: IFNβ promoter dual-luciferase reporter assay (IFNβ-Luc / pRL-SV40) in HEK293 cells; assay type: cell-based, human; settings: versus shNT, FIG. 6A
Description: To measure IFNβ promoter activity, HEK293 cells were transiently co-transfected using Fugene (Roche) with pGL3-Ifnβ-Luc (Lin R, Genin P, Mamane Y, & Hiscott J (2000) Selective DNA binding and association with the CREB binding protein coactivator contribute to differential activation of alpha/beta interferon genes by interferon regulatory factors 3 and 7. Molecular and cellular biology 20(17):6342-6353) and an expression plasmid carrying the Renilla luciferase gene driven by the SV40 promoter (Promega). […] The following day, cells were irradiated at indicated dose and collected at indicated time in passive lysis buffer (Promega). Firefly and Renilla luciferase activities were measured using a dual-luciferase assay system (Promega). For siRNAs experiments, siRNA against LGP2 (see above) or non-targeting (Dharmacon) were transfected with RNAimax 24 h prior to transfection of luciferase/Renilla plasmids. Mean luciferase values were normalized and quantified from duplicate runs for each of at least three separate experiments.
We next assessed the role of LGP2 in regulating the IR-induced IFNβ response. HEK293 cells were transduced with lentiviral shRNA to stably reduce the levels of LGP2 or control non-targeting (shNT). Stably transduced cells were co-transfected with IFNβ-Luc and pRL-SV40, mock-treated or exposed to 6 or 12 Gy and collected 72 hrs after IR.

[2] = tested on: BMDCs; assay: BMDC cross-priming of 2C CD8+ T cells after stimulation with irradiated MC38-SIY tumor cells (IFN-γ ELISPOT); assay type: cell-based, mouse
Protocol: Single-cell suspensions of bone marrow cells were obtained from C57BL/6J, STING^−/− and IRF3^−/− mice. Bone marrow from cGAS^−/− mice was kindly provided by Dr. Zhijian J. Chen of University of Texas Southwestern Medical Center, Dallas. The cells were placed in 10 cm petri dish and cultured in RPMI-1640 medium containing 10% fetal bovine serum (DENVILLE), supplemented with 20 ng/ml GM-CSF. Fresh media with GM-CSF was added into culture on day 3. BMDCs (bone marrow-derived dendritic cells) were harvest for stimulation assay on day 7. 8×10^6 MC38-SIY^hi cells were plated into 10 cm cell culture dishes overnight, and then pretreated with 40 Gy and incubated for 5 hours. BMDCs were added and co-cultured with MC38-SIY^hi cells at the ratio of 1:1 in the presence of fresh GM-CSF for additional 8 hours. Subsequently purified CD11c cells with EasySep™ Mouse CD11c Positive Selection Kit II (STEMCELL) were incubated with isolated CD8^+ T cells from naive 2 C mice for three days. For the bypassing assay, 10 ng/ml murine IFN-β was added in the co-culture of BMDCs and tumor cells, or 100 μg/ml DMXAA was added into isolated CD11c^+ cells with additional 3 h incubation. For IFN-β detection, BMDCs were co-cultured with tumor cells at the ratio of 1:1 for additional 8 hours, and 1×10^6 cells/ml purified CD11c^+ cells were seed into 96-well plates for 48 hours.
For bone-marrow CD11c^+ cells functional assay, 2×10^4 purified CD11c^+ cells with were incubated with isolated CD8^+ T cells from naive 2 C mice with EasySep™ Mouse CD8a Positive Selection Kit (STEMCELL) for three days at the ratio of 1:10. For tumor-specific CD8^+ T cells functional assay, eight days after radiation, tumor DLNs were removed and CD8^+ T cells were purified. MC38 tumor cells were exposed to 20 ng/ml murine IFN-γ for 24 hr prior to plating with purified CD8^+ T. 2×10^5 CD8^+ T cells were incubated with MC38 at the ratio of 10:1 for 48 hours. 96-well HTS-IP plate (Millipore) was pre-coated with 2.5 μg/ml anti-IFN-γ antibody (clone R4-6A2, BD Pharmingen) overnight at 4° C. […]

[3] = tested on: MC38 tumors; assay: MC38 tumor growth after local radiation in mice; assay type: in vivo, mouse; settings: 20 Gy, 10 μg intratumorally on day 2 and 6 after radiation, FIG. 21A, 21B
Protocol: (§1) 1×10^6 MC38 tumor cells were subcutaneously injected into the flank of mice. Tumor volumes were measured along three orthogonal axes (a, b, and c) and calculated as tumor volume=abc/2. Tumors were allowed to grow for 9-10 days and treated by local radiation (Deng et al., 2014). Briefly, the body was protected with a lead cover and the tumor was exposed, allowing local radiation. Tumors were irradiated using RS-2000 Biological Irradiator (RAD SOURCE) at the dose of 20 Gy with 160 kV and 25 mA. For type I IFN blockade experiments, 200 μg anti-IFAR1 mAb was intratumorally injected on day 0 and 2 after radiation. For HMGB-1 blockade experiments, 200 μg anti-HMGB-1 mAb (clone 3B1, generated by inventors) was administered i.p. on day 0 and 3 after radiation. For CD8^+ T cell depletion experiments, […] anti-CD8 mAb (Clone 2.43, BioXCell) was delivered 5 times by i.p. injection every three days starting one day before radiation. For exogenous IFN-β treatment experiments, 1×10^10 viral particles of Ad-IFN-β (Burnette, B., et al., The Efficacy of Radiotherapy Relies upon Induction of Type I Interferon-Dependent Innate and Adaptive Immunity, Cancer Res Apr. 1, 2011 71; 2488; (doi: 10.1158/0008-5472.CAN-10-2820)) were intratumorally administered on day 2 after radiation. Ad-null was used as negative control. […]

[4] = tested on: tumor-specific CD8+ T cells; assay: ELISPOT of tumor-specific IFN-γ-secreting CD8+ T cells from tumor draining lymph nodes after radiation; assay type: in vivo, mouse
Protocol: as §1

## LGP2 shRNA: lentiviral pLKO.1 shRNA against LGP2, SEQ ID NO:3 ATTCTTGCGGTCATCGAACAG, Thermo Scientific
[1]; HEK293, 6 or 12 Gy, 72 hrs after IR
  IR-induced IFNβ reporter activity: greatly increased
[1]; HEK293, mock-treated
  IFNβ reporter activity: significant increase

## Cc1ccc2c(=O)c3cccc(CC(=O)O)c3oc2c1C [DMXAA]
[2]; STING−/− BMDCs stimulated with irradiated tumor cells, 10 ng/ml IFN-β or 100 μg/ml DMXAA, FIG. 18C
  function of STING−/− BMDCs (cross-priming of CD8+ T cells): fails to rescue
[2]; cGAS−/− BMDCs stimulated with irradiated tumor cells, 10 ng/ml IFN-β or 100 μg/ml DMXAA, FIG. 19D
  function of cGAS−/− BMDCs (cross-priming of CD8+ T cells): restored

## Nc1nc2c(ncn2[C@@H]2O[C@@H]3COP(=O)(O)O[C@H]4[C@@H](O)[C@H](n5cnc6c(N)ncnc65)O[C@@H]4COP(=O)(O)O[C@@H]2[C@@H]3O)c(=O)[nH]1 [2′3′-cGAMP, cyclic [G(2′,5′)pA(3′,5′)p]]
[3]; STING−/− mice
  synergy with radiation on tumor burden: abrogated
[3]; WT mice, versus either treatment alone
  tumor burden, combination with radiation: effectively reduce tumor burden
[4]; STING−/− host, FIG. 21D
  antitumor CD8+ T cell response induced by the combination with radiation: dampened
[4]; WT mice, 10 μg intratumorally on day 2 after 20 Gy, DLNs day 8, versus radiation or 2′3′-cGAMP alone, FIG. 21C
  number of tumor-specific IFN-γ-producing CD8+ T cells in DLNs, combination with radiation: significantly increased

## siRNA-cGAS: Mission siRNA against murine cGAS, 5′-GAGGAAAUCCGCUGAGUCAdTdT-3′ (SEQ ID NO:8), Sigma (GAGGAAAUCCGCUGAGUCADTDT; dTdT 3' overhang, further chemistry not given here)
[2]; BMDCs transfected with 50 nM siRNA, versus non-target control, stimulated with irradiated tumor cells, FIG. 19B
  function of DCs (cross-priming of CD8+ T cells): greatly diminished
